Calls of active or inactive are those of the source. No cut-off for these calls is given here.

Data set [1] addresses T1, Peroxiredoxin-2 (Homo sapiens) (UniProt P32119).
T1 sequence (whole entry): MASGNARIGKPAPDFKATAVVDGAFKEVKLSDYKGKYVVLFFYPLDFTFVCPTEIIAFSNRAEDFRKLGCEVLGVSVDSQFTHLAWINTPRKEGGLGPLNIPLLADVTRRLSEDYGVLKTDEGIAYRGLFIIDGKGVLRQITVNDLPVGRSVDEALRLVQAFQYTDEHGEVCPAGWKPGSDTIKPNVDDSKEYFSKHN
Kind of data set: Binding affinity to PRDX2 in human DOHH-2 cells measured after 6 hrs by pull-down assay. The format is cell-based. Particulars: DDE = dose-dependent effect.

Data set [2] has as its system DOHH-2. As to the kind of experiment: Induction of autophagy in human DOHH-2 cells assessed as reduction in p62 expression at 8 uM measured after 4 to 24 hrs by Western blot analysis. The format is functional, cell-based. The conditions noted are these: time 4-24 hrs. For orientation: In western blotting, separated proteins are transferred to a membrane and probed.

Data set [3] is filed under the species Homo sapiens. As to the kind of experiment: Binding affinity to ADP-bound full-length human HSP70 by TAMRA-azide based fluorescence imaging analysis. The conditions noted are these: dose 0.2-20 µM, DDE = dose-dependent effect.
Data set [4] deals with Coronin-1A (Homo sapiens) (UniProt P31146). As to the kind of experiment: Binding affinity to coronin-1A in human DOHH-2 cells by MS analysis. The data set is classed as cell-based.
Coronin-1A (Homo sapiens), sequence (P31146 whole entry): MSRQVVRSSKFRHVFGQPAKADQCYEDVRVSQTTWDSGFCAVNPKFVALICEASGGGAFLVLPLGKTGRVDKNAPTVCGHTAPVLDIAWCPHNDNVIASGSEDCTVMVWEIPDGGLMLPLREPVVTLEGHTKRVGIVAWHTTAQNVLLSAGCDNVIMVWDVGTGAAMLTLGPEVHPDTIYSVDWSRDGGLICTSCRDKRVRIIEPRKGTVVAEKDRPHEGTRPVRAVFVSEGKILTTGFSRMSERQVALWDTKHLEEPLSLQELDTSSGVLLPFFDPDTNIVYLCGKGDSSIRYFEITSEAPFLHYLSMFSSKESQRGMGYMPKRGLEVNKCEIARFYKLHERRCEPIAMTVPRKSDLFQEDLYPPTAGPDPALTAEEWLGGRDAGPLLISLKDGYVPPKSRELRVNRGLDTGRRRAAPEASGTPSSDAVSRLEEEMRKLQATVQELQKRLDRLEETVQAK
Data set [5] has as its target Glutathione S-transferase 3, mitochondrial (Homo sapiens) (UniProt O14880). Kind of data set: Binding affinity to MGST3 in human DOHH-2 cells measured after 6 hrs by pull-down assay. The conditions noted are these: DDE = dose-dependent effect. The format is cell-based.
The test system of another data set is Jurkat. As to the kind of experiment: Cytotoxicity against human Jurkat T cells measured after 72 hrs. The format is functional, cell-based.
The test system of data set [6] is DOHH-2. As to the kind of experiment: Induction of autophagy in human DOHH-2 cells assessed as change in transformation of LC3B1 to LC3B2 expression at 8 uM measured after 4 to 24 hrs by Western blot analysis. The data set is classed as functional, cell-based. The conditions noted are these: time 4-24 hrs.
In a further data set the target is T2, Plastin-2 (Homo sapiens) (UniProt P13796).
T2 sequence (whole entry): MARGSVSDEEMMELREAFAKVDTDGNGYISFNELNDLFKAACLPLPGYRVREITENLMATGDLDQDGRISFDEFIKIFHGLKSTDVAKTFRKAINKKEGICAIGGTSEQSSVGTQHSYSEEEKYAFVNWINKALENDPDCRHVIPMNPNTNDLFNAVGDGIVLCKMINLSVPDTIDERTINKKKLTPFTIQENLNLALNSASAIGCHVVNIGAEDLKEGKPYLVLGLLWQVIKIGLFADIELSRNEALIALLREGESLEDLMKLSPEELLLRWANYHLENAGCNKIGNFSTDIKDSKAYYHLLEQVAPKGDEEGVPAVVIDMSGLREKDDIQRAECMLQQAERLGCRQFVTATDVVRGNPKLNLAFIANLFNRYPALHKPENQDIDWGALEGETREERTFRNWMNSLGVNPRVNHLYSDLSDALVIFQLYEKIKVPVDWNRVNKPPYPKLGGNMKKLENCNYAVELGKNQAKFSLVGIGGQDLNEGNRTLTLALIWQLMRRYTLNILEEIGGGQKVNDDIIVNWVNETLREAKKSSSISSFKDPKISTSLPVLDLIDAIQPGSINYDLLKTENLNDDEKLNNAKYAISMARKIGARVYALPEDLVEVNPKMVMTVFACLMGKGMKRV
As to the kind of experiment: Binding affinity to plastin-2 in human DOHH-2 cells by MS analysis. The data set is classed as cell-based.

In another data set the test system is HEK-293T. As to the kind of experiment: Cytotoxicity against HEK293T cells up to 20 uM measured after 24 hrs. Particulars: human. The format is toxicity, cell-based.
For data set [7], the species on record is Homo sapiens. Kind of data set: Binding affinity to ADP-bound full-length human HSP70 assessed as Cys574 adduct formation at SBDalpha domain by LC-MS/MS analysis.
Data set [8] has as its target T3, Protein disulfide-isomerase A4 (Homo sapiens) (UniProt P13667).
T3 sequence (whole entry): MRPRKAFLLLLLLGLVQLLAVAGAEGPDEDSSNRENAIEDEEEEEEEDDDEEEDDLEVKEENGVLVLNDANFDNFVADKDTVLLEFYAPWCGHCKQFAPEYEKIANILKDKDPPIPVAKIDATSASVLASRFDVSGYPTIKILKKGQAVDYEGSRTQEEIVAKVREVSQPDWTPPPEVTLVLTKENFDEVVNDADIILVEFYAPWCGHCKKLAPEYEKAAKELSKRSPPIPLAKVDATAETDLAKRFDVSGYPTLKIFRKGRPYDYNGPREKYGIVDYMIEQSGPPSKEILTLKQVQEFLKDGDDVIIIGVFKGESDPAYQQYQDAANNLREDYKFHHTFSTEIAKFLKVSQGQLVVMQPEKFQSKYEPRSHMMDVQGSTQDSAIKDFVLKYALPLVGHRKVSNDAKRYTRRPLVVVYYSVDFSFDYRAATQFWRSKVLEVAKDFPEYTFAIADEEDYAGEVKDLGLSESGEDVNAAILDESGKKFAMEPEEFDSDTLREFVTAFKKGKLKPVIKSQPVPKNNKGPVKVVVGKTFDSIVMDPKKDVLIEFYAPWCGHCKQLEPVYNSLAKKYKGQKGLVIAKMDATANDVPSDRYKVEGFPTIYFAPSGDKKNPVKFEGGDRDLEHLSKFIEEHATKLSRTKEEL
Kind of data set: Binding affinity to PDIA4 in human DOHH-2 cells by MS analysis. The format is cell-based.

The subject of data set [9] is DOHH-2. Kind of data set: Induction of autophagy in human DOHH-2 cells assessed as reduction in p62 expression at 0.5 to 8 uM measured after 24 hrs by Western blot analysis. The data set is classed as functional, cell-based. The conditions noted are these: dose 0.5-8 µM.
For data set [10], the target named is Elongation factor 2 (Homo sapiens) (UniProt P13639). Kind of data set: Binding affinity to elongation factor 2 in human MDA-MB-453 cells measured after 6 hrs by pull-down assay. The data set is classed as cell-based. The conditions noted are these: dose <= 20.0 µM, DDE = dose-dependent effect.
The target in data set [11] is Tubulin alpha (Homo sapiens) (UniProt P0DPH7+P68366+Q71U36+P68363+Q9BQE3+Q6PEY2+A6NHL2+Q9NY65). As to the kind of experiment: Binding affinity to alpha-tubulin in human MDA-MB-453 cells measured after 6 hrs by pull-down assay. The format is cell-based. The conditions noted are these: dose <= 20.0 µM, DDE = dose-dependent effect.
Data set [12] has as its target T4, Protein disulfide-isomerase A3 (Homo sapiens) (UniProt P30101).
T4 sequence (whole entry): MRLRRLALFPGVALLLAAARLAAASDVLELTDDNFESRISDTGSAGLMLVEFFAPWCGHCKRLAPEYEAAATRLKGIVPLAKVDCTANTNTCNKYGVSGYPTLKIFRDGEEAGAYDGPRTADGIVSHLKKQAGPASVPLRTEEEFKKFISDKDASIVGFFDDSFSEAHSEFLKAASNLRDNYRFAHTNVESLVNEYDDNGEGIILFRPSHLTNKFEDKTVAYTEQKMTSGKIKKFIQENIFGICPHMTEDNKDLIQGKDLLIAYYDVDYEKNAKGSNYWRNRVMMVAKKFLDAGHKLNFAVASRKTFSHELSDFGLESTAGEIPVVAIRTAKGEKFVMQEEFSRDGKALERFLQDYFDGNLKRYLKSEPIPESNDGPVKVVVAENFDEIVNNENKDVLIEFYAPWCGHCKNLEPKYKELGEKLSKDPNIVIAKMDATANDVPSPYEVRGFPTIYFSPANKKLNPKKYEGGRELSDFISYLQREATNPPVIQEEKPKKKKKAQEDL
Kind of data set: Binding affinity to PDIA3 in human DOHH-2 cells measured after 6 hrs by pull-down assay. The data set is classed as cell-based. The conditions noted are these: DDE = dose-dependent effect.

Glutathione S-transferase 3, mitochondrial (Homo sapiens), sequence (O14880 whole entry): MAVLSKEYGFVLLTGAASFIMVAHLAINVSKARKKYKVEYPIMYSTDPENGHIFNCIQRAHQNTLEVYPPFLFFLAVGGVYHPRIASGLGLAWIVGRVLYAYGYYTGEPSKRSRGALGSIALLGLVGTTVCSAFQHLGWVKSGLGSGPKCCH

`C#Cc1cccc(C#CS(N)(=O)=O)c1`: the Activity entry in data set [1] was “Dde”; in the data set listed under Homo sapiens [3], “Dde”; in data set [5], “Dde”; in the data set with HEK-293T, “Non-Toxic”; in data set [10], “Dde”; in data set [11], “Dde”. Besides, the Activity entry in data set [12] was “Dde”. Also, the outcome (in the data set on DOHH-2 [2]; in data set [4]; in the data set with Jurkat; with DOHH-2 [6]; on Plastin-2 (Homo sapiens); in the data set listed under Homo sapiens [7]) was Active. The outcome (in data set [8]; with DOHH-2 [9]) was Active.
